Laboratory results published in ChEMBL document CHEMBL1201862, “PubChem BioAssay data set” (2004).
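Dose response: 5 concentrations. Exposure: 48 h. Format: 96-well plates. Endpoint: linear interpolation; highest concentration if not reached. GI50 marks 50% less growth.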 The source made the active and inactive calls. Cut-off read from the data, not from the text of the source: active = GI50 up to about 1.1 µM and inactive = higher.

Tests used:
Test in all cases: DTP human tumour cell line panel, 48 h
786-0 = system: 786-0
A498 = system: A498
A549 = system: A549
ACHN = system: ACHN
BT-549 = system: BT-549
CAKI-1 = system: CAKI-1
CCRF-CEM = system: CCRF-CEM
COLO 205 = system: COLO 205
DU-145 = system: DU-145
EKVX = system: EKVX
HCC 2998 = system: HCC 2998
HCT-116 = system: HCT-116
HCT-15 = system: HCT-15
HL-60 = system: HL-60
HOP-62 = system: HOP-62
HOP-92 = system: HOP-92
HT-29 = system: HT-29
Hs-578T = system: Hs-578T
K562 = system: K562
KM12 = system: KM12
LOX IMVI = system: LOX IMVI
M14 = system: M14
MCF7 = system: MCF7
MDA-MB-231 = system: MDA-MB-231
MDA-MB-435 = system: MDA-MB-435
MDA-N = system: MDA-N
MOLT-4 = system: MOLT-4
Malme-3M = system: Malme-3M
NCI-H226 = system: NCI-H226
NCI-H23 = system: NCI-H23
NCI-H460 = system: NCI-H460
NCI-H522 = system: NCI-H522
NCI/ADR-RES = system: NCI/ADR-RES
OVCAR-3 = system: OVCAR-3
OVCAR-4 = system: OVCAR-4
OVCAR-5 = system: OVCAR-5
OVCAR-8 = system: OVCAR-8
PC-3 = system: PC-3
SF-268 = system: SF-268
SF-295 = system: SF-295
SF-539 = system: SF-539
SK-MEL-28 = system: SK-MEL-28
SK-MEL-2 = system: SK-MEL-2
SK-MEL-5 = system: SK-MEL-5
SK-OV-3 = system: SK-OV-3
SN12C = system: SN12C
SNB-19 = system: SNB-19
SNB-75 = system: SNB-75
SR = system: SR
SW-620 = system: SW-620
T47D = system: T47D
TK-10 = system: TK-10
U-251 = system: U-251
UACC-257 = system: UACC-257
UACC-62 = system: UACC-62
UO-31 = system: UO-31
IGROV-1 = system: IGROV-1
RPMI-8226 = system: RPMI-8226
RXF 393 = system: RXF 393

In the case of `COc1ccc(C(=O)N(C(=O)N2CCN(c3ccccc3)CC2)S(=O)(=O)c2ccccc2)cc1`, the GI50 (786-0) is reported as 29.9 µM (inactive), the GI50 (A498) is reported as 53.8 µM (inactive) and the GI50 (A549) is reported as 28.4 µM (inactive). The GI50 (ACHN) was 18.8 µM (inactive), the GI50 (BT-549) was 33.3 µM (inactive) and the GI50 (CAKI-1) was 20.3 µM (inactive). The GI50 (CCRF-CEM) was 25.1 µM (inactive), the GI50 (COLO 205) was 17.9 µM (inactive) and the GI50 (DU-145) was 27.2 µM (inactive). The GI50 (EKVX) was 20.7 µM (inactive), the GI50 (HCC 2998) was 52.6 µM (inactive) and the GI50 (HCT-116) was 18.8 µM (inactive). The GI50 (HCT-15) was 27.8 µM, the GI50 (HL-60) was 22.1 µM (inactive) and the GI50 (HOP-62) was 35 µM (inactive). For the same compound, the GI50 (HOP-92) was 25.4 µM (inactive), the GI50 (HT-29) was 28.1 µM (inactive) and the GI50 (Hs-578T) was 25.1 µM (inactive). The GI50 (K562) was 24.2 µM (inactive), the GI50 (KM12) was 31.6 µM (inactive) and the GI50 (LOX IMVI) was 13.7 µM (inactive). For the same compound, the GI50 (M14) was 19.7 µM (inactive), the GI50 (MCF7) was 29.6 µM (inactive) and the GI50 (MDA-MB-231) was 25.3 µM (inactive). The GI50 (MDA-MB-435) was 29.5 µM (inactive), the GI50 (MDA-N) was 23.9 µM (inactive) and the GI50 (MOLT-4) was 19.5 µM (inactive). The GI50 (Malme-3M) was 28.2 µM (inactive), the GI50 (NCI-H226) was 22.2 µM (inactive) and the GI50 (NCI-H23) was 24.1 µM (inactive). The GI50 (NCI-H460) was 32.4 µM (inactive), the GI50 (NCI-H522) was 15.4 µM (inactive) and the GI50 (NCI/ADR-RES) was 21.9 µM (inactive). The GI50 (OVCAR-3) was 37.8 µM (inactive), the GI50 (OVCAR-4) was 30.5 µM (inactive) and the GI50 (OVCAR-5) was 24.7 µM (inactive). For the same compound, the GI50 (OVCAR-8) was 19.8 µM (inactive), the GI50 (PC-3) was 30.5 µM (inactive) and the GI50 (SF-268) was 31.8 µM (inactive). For the same compound, the GI50 (SF-295) was 31.9 µM (inactive), the GI50 (SF-539) was 17.8 µM (inactive) and the GI50 (SK-MEL-28) was 30.8 µM (inactive). The GI50 (SK-MEL-2) was 18.5 µM (inactive), the GI50 (SK-MEL-5) was 14.5 µM (inactive) and the GI50 (SK-OV-3) was 86.5 µM (inactive). The GI50 (SN12C) was 24.3 µM (inactive), the GI50 (SNB-19) was 24.7 µM (inactive) and the GI50 (SNB-75) was 32.7 µM (inactive). For the same compound, the GI50 (SR) was 18.8 µM (inactive), the GI50 (SW-620) was 37.4 µM (inactive) and the GI50 (T47D) was 23 µM (inactive). The GI50 (TK-10) was 38.4 µM (inactive), the GI50 (U-251) was 18.1 µM (inactive) and the GI50 (UACC-257) was 31.4 µM (inactive). For the same compound, the GI50 (UACC-62) was 18.3 µM (inactive) and the GI50 (UO-31) was 13.6 µM (inactive).
With `CC(C)(S)C(N)C(=O)O` (stereo not drawn) [DL-PENICILLAMINE] the GI50 (786-0) was > 100 µM (inactive), the GI50 (A498) was > 100 µM (inactive) and the GI50 (A549) was > 100 µM (inactive). The GI50 (ACHN) was > 100 µM (inactive), the GI50 (BT-549) was > 100 µM (inactive) and the GI50 (CAKI-1) was > 100 µM (inactive). For the same compound, the GI50 (COLO 205) was > 100 µM (inactive), the GI50 (DU-145) was > 100 µM (inactive) and the GI50 (EKVX) was > 100 µM (inactive). The GI50 (HCT-116) was > 100 µM (inactive), the GI50 (HCT-15) was over 100 µM and the GI50 (HOP-62) was > 100 µM (inactive). For the same compound, the GI50 (HOP-92) was > 100 µM (inactive), the GI50 (HT-29) was > 100 µM (inactive) and the GI50 (Hs-578T) was > 100 µM (inactive). For the same compound, the GI50 (IGROV-1) was > 100 µM (inactive), the GI50 (K562) was > 100 µM (inactive) and the GI50 (KM12) was > 100 µM (inactive). For the same compound, the GI50 (LOX IMVI) was > 100 µM (inactive), the GI50 (M14) was > 100 µM (inactive) and the GI50 (MCF7) was > 100 µM (inactive). For the same compound, the GI50 (MDA-MB-231) was > 100 µM (inactive), the GI50 (MDA-MB-435) was > 100 µM (inactive) and the GI50 (MDA-N) was > 100 µM (inactive). For the same compound, the GI50 (MOLT-4) was > 100 µM (inactive), the GI50 (Malme-3M) was > 100 µM (inactive) and the GI50 (NCI-H226) was > 100 µM (inactive). For the same compound, the GI50 (NCI-H23) was > 100 µM (inactive), the GI50 (NCI-H460) was > 100 µM (inactive) and the GI50 (NCI-H522) was > 100 µM (inactive). For the same compound, the GI50 (NCI/ADR-RES) was > 100 µM (inactive), the GI50 (OVCAR-3) was > 100 µM (inactive) and the GI50 (OVCAR-4) was > 100 µM (inactive). For the same compound, the GI50 (OVCAR-5) was > 100 µM (inactive), the GI50 (OVCAR-8) was > 100 µM (inactive) and the GI50 (PC-3) was > 100 µM (inactive). For the same compound, the GI50 (RPMI-8226) was > 100 µM (inactive), the GI50 (RXF 393) was > 100 µM (inactive) and the GI50 (SF-268) was > 100 µM (inactive). The GI50 (SF-295) was > 100 µM (inactive), the GI50 (SF-539) was > 100 µM (inactive) and the GI50 (SK-MEL-28) was > 100 µM (inactive). For the same compound, the GI50 (SK-MEL-2) was > 100 µM (inactive), the GI50 (SK-MEL-5) was > 100 µM (inactive) and the GI50 (SK-OV-3) was > 100 µM (inactive). For the same compound, the GI50 (SN12C) was > 100 µM (inactive), the GI50 (SNB-19) was > 100 µM (inactive) and the GI50 (SNB-75) was > 100 µM (inactive). For the same compound, the GI50 (SR) was > 100 µM (inactive), the GI50 (SW-620) was > 100 µM (inactive) and the GI50 (T47D) was > 100 µM (inactive). For the same compound, the GI50 (TK-10) was > 100 µM (inactive), the GI50 (U-251) was > 100 µM (inactive) and the GI50 (UACC-257) was > 100 µM (inactive). For the same compound, the GI50 (UACC-62) was > 100 µM (inactive).
